From ChEMBL document CHEMBL1201862, “PubChem BioAssay data set” (2004)
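Protocol summary: plate cells (96-well), add compound at 5 concentrations, incubate 48 h, interpolate endpoints linearly. The concentration for 50% growth inhibition is given as GI50.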 Calls of active or inactive are those of the source. Rule as the data show it: active = GI50 up to about 1.1 µM and inactive = higher.

Experiments:
Assay in all cases: DTP human tumour cell line panel, 48 h
[1] = system: COLO 205
[2] = system: HCT-116
[3] = system: HCT-15
[4] = system: NCI-H226
[5] = system: UACC-257
[6] = system: HL-60
[7] = system: OVCAR-4
[8] = system: MCF7
[9] = system: OVCAR-5
[10] = system: PC-3
[11] = system: SF-539
[12] = system: OVCAR-8
[13] = system: BT-549
[14] = system: KM12
[15] = system: CCRF-CEM
[16] = system: MOLT-4
[17] = system: EKVX
[18] = system: SN12C
[19] = system: SR

Row | Structure (SMILES) | GI50 [1] | GI50 [2] | GI50 [3] [µM] | GI50 [4] | GI50 [5] | GI50 [6] | GI50 [7] | GI50 [8] | GI50 [9] | GI50 [10] | GI50 [11] | GI50 [12] | GI50 [13] | GI50 [14] | GI50 [15] | GI50 [16] | GI50 [17] | GI50 [18] | GI50 [19]
1 | Sc1nnc(NNc2ccccc2)n1Nc1ccccc1 | 0.109 µM (active) | 2.31 µM (inactive) | 2.1 | 22.6 µM (inactive) | 0.283 µM (active) | 0.04 µM (active) | 0.236 µM (active) | 0.508 µM (active) | > 55.2 µM (inactive) | 44.8 µM (inactive) | > 42.5 µM (inactive) | 21.2 µM (inactive) | 8.69 µM (inactive) | 26.1 µM (inactive) | 8.97 µM (inactive) | 0.625 µM (active) | > 87.3 µM (inactive) | > 95.9 µM (inactive) | 
2 | CC(=O)Nc1nc2c(=O)c3ccccc3sc2s1 | > 100 µM (inactive) | > 100 µM (inactive) | > 100 | > 100 µM (inactive) | > 100 µM (inactive) | > 100 µM (inactive) |  | 34.4 µM (inactive) | > 100 µM (inactive) | > 100 µM (inactive) | > 100 µM (inactive) | > 100 µM (inactive) | > 100 µM (inactive) | > 100 µM (inactive) | > 100 µM (inactive) | > 100 µM (inactive) | > 100 µM (inactive) | > 100 µM (inactive) | 
3 | CCn1c2ccccc2c2cc(NC(=O)c3c(C)nc(O)nc3NCCNCCO)ccc21 | > 100 µM (inactive) | > 100 µM (inactive) | > 100 | > 100 µM (inactive) | > 100 µM (inactive) | 1.58 µM (inactive) | > 100 µM (inactive) | > 100 µM (inactive) | > 100 µM (inactive) | > 100 µM (inactive) | > 100 µM (inactive) | > 100 µM (inactive) | > 100 µM (inactive) | > 100 µM (inactive) | > 100 µM (inactive) | > 100 µM (inactive) | > 100 µM (inactive) | > 100 µM (inactive) | 
4 | O=[N+]([O-])c1cccc(-c2csc(N/N=C3\NC/C(=C/c4ccc5c(c4)OCO5)S3)n2)c1 | 28.4 µM (inactive) | 30.6 µM (inactive) | 35.7 | 16.6 µM (inactive) | 35.9 µM (inactive) | 26.6 µM (inactive) | 27.9 µM (inactive) | 33.7 µM (inactive) | 28.4 µM (inactive) | 21.5 µM (inactive) | 40.8 µM (inactive) | 14.3 µM (inactive) | 25.1 µM (inactive) | 12.9 µM (inactive) | 35.4 µM (inactive) | 34.4 µM (inactive) | 9.02 µM (inactive) | 37.2 µM (inactive) | 
5 | NC(CC1=CCC=CC1)C(=O)O (stereo not drawn) | 38 µM (inactive) | 55.1 µM (inactive) | 57.9 |  | > 100 µM (inactive) |  | > 100 µM (inactive) | 47.4 µM (inactive) | > 100 µM (inactive) | 45.7 µM (inactive) |  | 67.1 µM (inactive) | > 100 µM (inactive) | 68.2 µM (inactive) | 62.8 µM (inactive) | 62.2 µM (inactive) | > 100 µM (inactive) | > 100 µM (inactive) | > 10 µM (inactive)
6 | N#CC(c1ccccc1)N(CCc1ccccc1)C(=O)c1ccc(C(=O)N(CCc2ccccc2)C(C#N)c2ccccc2)cc1 (stereo not drawn) | 21.9 µM (inactive) | 14.3 µM (inactive) | 18.6 | 17 µM (inactive) | 18.1 µM (inactive) | 22.9 µM (inactive) | 18.9 µM (inactive) | 30.3 µM (inactive) | 19.8 µM (inactive) | 21.7 µM (inactive) | 19.5 µM (inactive) | 17.6 µM (inactive) | 14.5 µM (inactive) | 32.9 µM (inactive) | 26.1 µM (inactive) | > 10 µM (inactive) | 34.4 µM (inactive) | 19.5 µM (inactive) | 
7 | CC(C)(CN1CCCCC1)C(=O)CC(SCCS(=O)(=O)O)c1ccccc1 (stereo not drawn) | 13.6 µM (inactive) | 5.9 µM (inactive) | 8.57 | 27.7 µM (inactive) |  |  | 17.6 µM (inactive) | 10.2 µM (inactive) | 11.6 µM (inactive) | 22.9 µM (inactive) | 12.6 µM (inactive) | 18.8 µM (inactive) | 15.3 µM (inactive) | 18.5 µM (inactive) | 5.16 µM (inactive) | 11.3 µM (inactive) | 14.1 µM (inactive) | 20 µM (inactive) | 0.466 µM (active)
8 | C[Si](C)(C)OC1c2[nH]c3ccccc3c2CN2C(=O)CCC12 (stereo not drawn) | > 100 µM (inactive) | > 100 µM (inactive) | > 100 | > 100 µM (inactive) | > 100 µM (inactive) | > 100 µM (inactive) | > 100 µM (inactive) | > 100 µM (inactive) | > 100 µM (inactive) | > 100 µM (inactive) | > 100 µM (inactive) | > 100 µM (inactive) | > 100 µM (inactive) | > 100 µM (inactive) |  | > 100 µM (inactive) | > 100 µM (inactive) | > 100 µM (inactive) | > 100 µM (inactive)
9 | CC1OC(OC2C(O)COC(OC3C(C)OC(OC4C(OC(=O)[C@]56CCC(C)(C)C[C@@H]5C5=CCC7[C@@]8(C)C[C@H](O)[C@H](OC9OC(CO)C(O)C(O)C9O)[C@@](C)(CO)[C@@H]8CC[C@@]7(C)[C@]5(C)CC6)OCC(O)C4O)C(O)C3OC3OCC(O)C(O)C3O)C2O)C(O)C(O)C1O (stereo partly drawn) | 4.46 µM (inactive) | 19.9 µM (inactive) | 28.8 | 23.1 µM (inactive) | 14.9 µM (inactive) |  | 20.1 µM (inactive) | 19.8 µM (inactive) | 14.4 µM (inactive) | 14 µM (inactive) | 18.1 µM (inactive) | 19.5 µM (inactive) | 31.9 µM (inactive) | 25.7 µM (inactive) | 15.6 µM (inactive) | 20.1 µM (inactive) | 10.7 µM (inactive) | 17.5 µM (inactive) | 17.9 µM (inactive)
10 | Cc1cc(C(C)(C)C)c(OCCCN2CCOCC2)c(C(C)(C)C)c1 | 15.7 µM (inactive) | 16.7 µM (inactive) | 18 |  | 17.3 µM (inactive) | 14.1 µM (inactive) | 15.9 µM (inactive) | 18.6 µM (inactive) | 17.9 µM (inactive) | 15.8 µM (inactive) | 18.7 µM (inactive) | 20.2 µM (inactive) | 17.5 µM (inactive) | 17.5 µM (inactive) | 16.6 µM (inactive) | 17.1 µM (inactive) | 17.9 µM (inactive) | 17.8 µM (inactive) | 17.7 µM (inactive)
11 | Nc1nc(O)c2nc3c(nc2n1)C(=O)N(c1ccc(C(=O)O)cc1)C3 | > 100 µM (inactive) | > 100 µM (inactive) | > 100 | > 100 µM (inactive) | > 100 µM (inactive) |  | > 100 µM (inactive) | > 100 µM (inactive) | > 100 µM (inactive) | > 100 µM (inactive) | > 100 µM (inactive) | > 100 µM (inactive) | > 100 µM (inactive) | > 100 µM (inactive) |  |  | > 100 µM (inactive) | > 100 µM (inactive) | > 100 µM (inactive)
12 | CN(C)C(=N)/N=C(\N)Nc1cccc(Cl)c1 | 20 µM (inactive) | 85.7 µM (inactive) | > 100 | 22.3 µM (inactive) | 90.8 µM (inactive) |  | > 100 µM (inactive) | 90.8 µM (inactive) | > 100 µM (inactive) | 41.8 µM (inactive) | 47.8 µM (inactive) | 61.4 µM (inactive) | 19.5 µM (inactive) | > 100 µM (inactive) |  | > 100 µM (inactive) | > 100 µM (inactive) | 98.6 µM (inactive) | 53.2 µM (inactive)
13 | CCOP(=O)(OCC)C(C(=O)OC)C(=O)C(=O)Nc1cccc(O)c1 (stereo not drawn) | > 100 µM (inactive) | > 100 µM (inactive) | > 100 | > 100 µM (inactive) | > 100 µM (inactive) |  | > 100 µM (inactive) | > 100 µM (inactive) | > 100 µM (inactive) | > 100 µM (inactive) | > 100 µM (inactive) | > 100 µM (inactive) | > 100 µM (inactive) | > 100 µM (inactive) | > 100 µM (inactive) | > 100 µM (inactive) | > 100 µM (inactive) | > 100 µM (inactive) | > 100 µM (inactive)
14 | OC(c1ccccc1)(c1cccnc1)C(O)(c1ccccc1)c1cccnc1 (stereo not drawn) | > 100 µM (inactive) | > 100 µM (inactive) | > 100 | 69.7 µM (inactive) | > 100 µM (inactive) | > 100 µM (inactive) |  | > 100 µM (inactive) | > 100 µM (inactive) | > 100 µM (inactive) | > 100 µM (inactive) | > 100 µM (inactive) | > 100 µM (inactive) | > 100 µM (inactive) | > 100 µM (inactive) |  | > 100 µM (inactive) | > 100 µM (inactive) | 
15 | CN1c2ccccc2S(=O)(=O)n2c(CCc3ccccc3)nnc21 | > 100 µM (inactive) | > 100 µM (inactive) | > 100 | > 100 µM (inactive) | > 100 µM (inactive) | > 100 µM (inactive) | 82 µM (inactive) | > 100 µM (inactive) | > 100 µM (inactive) | > 100 µM (inactive) | > 100 µM (inactive) | > 100 µM (inactive) | > 100 µM (inactive) | > 100 µM (inactive) | > 100 µM (inactive) | > 100 µM (inactive) | > 100 µM (inactive) | > 100 µM (inactive) | 
16 | COc1cc2ccc1OCc1cccc(n1)COc1ccc(cc1OC)/C=N\CCNCC/N=C\2 | > 100 µM (inactive) | 45.4 µM (inactive) | > 100 | > 100 µM (inactive) | > 100 µM (inactive) | > 100 µM (inactive) | > 100 µM (inactive) | > 100 µM (inactive) | > 100 µM (inactive) | > 100 µM (inactive) | > 100 µM (inactive) | > 100 µM (inactive) | 42.5 µM (inactive) |  |  | > 100 µM (inactive) | > 100 µM (inactive) | > 100 µM (inactive) | > 100 µM (inactive)
